This is an account of results in patent publication US11046691B1 (IDEAYA BIOSCIENCES, INC., priority 2018, dated 2021).

Bounds are passed on as bounds.

Sequence of hMAT2A (P31153 whole entry): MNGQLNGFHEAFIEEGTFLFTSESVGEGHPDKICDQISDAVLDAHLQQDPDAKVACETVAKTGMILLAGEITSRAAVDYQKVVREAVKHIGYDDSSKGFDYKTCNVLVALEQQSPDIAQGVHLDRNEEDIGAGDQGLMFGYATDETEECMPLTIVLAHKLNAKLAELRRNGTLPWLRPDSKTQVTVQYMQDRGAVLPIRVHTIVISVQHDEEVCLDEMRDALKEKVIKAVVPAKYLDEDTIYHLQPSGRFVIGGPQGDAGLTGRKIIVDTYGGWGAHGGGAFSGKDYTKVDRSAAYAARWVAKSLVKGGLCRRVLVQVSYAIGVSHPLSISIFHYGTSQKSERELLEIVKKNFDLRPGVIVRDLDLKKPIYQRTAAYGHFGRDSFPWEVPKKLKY

One assay has as its target hMAT2A (Homo sapiens (Human), UniProt P31153). In words: Phosphate Sensor Fluorescence Assay (MAT2A enzyme inhibition). The format is biochemical. The settings on record: L-methionine 500 uM, ATP 500 uM, class symbols. The essentials: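 Recombinant MAT2A preincubated 15 min at room temperature with compound, then reacted 1 h at room temperature with 500 uM L-methionine and 500 uM ATP in Tris pH 7.5 buffer containing PNP/7-MEG.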
Compound `O=c1nc(N[C@H]2C[C@@](O)(C(F)(F)F)C2)c2ccc(C(F)(F)F)nc2n1-c1ccccc1Cl` [Example 299] registered an IC50 of 200 to 500 nM.

Consider `CN(Cc1ccncc1)c1nc(=O)n(-c2ccccc2)c2cc(Cl)ccc12` [Example 234, 7-chloro-4-[methyl(pyridin-4-ylmethyl)-amino]-1-phenylhydroquinazolin-2-one], for which the IC50 is under 200 nM.

The compound `COc1cc(C2CC2)cc2c1c(NCC1(F)CC1)nc(=O)n2-c1ccccc1Cl` [Example 407, 1-(2-chlorophenyl)-7-cyclopropyl-4-{[(fluorocyclopropyl)methyl]amino}-5-methoxyhydroquinazolin-2-one] yielded an IC50 of under 200 nM.

With `CC(C)Nc1nc(=O)n(-c2ccccc2Cl)c2nc(C(F)(F)F)ccc12` [Example 258, 1-(2-chlorophenyl)-4-[(methylethyl)-amino]-7-(trifluoromethyl)pyrido[2,3-d]-pyrimidin-2(1H)-one], the IC50 was under 200 nM.

As to `CNc1nc(=O)n(-c2ccccc2Cl)c2cc(C(F)(F)F)c(Br)cc12` [Example 302, 6-bromo-1-(2-chlorophenyl)-4-(methylamino)-7-(trifluoromethyl)-quinazolin-2(1H)-one], the half-inhibitory concentration (IC50) was under 200 nM.

`CCOC(=O)c1ccc2c(=O)[nH]c(=O)n(-c3ccccc3)c2c1` [Example 213, ethyl 2,4-dioxo-1-phenyl-1,3-dihydro-quinazoline-7-carboxylate]: the IC50 lay within 1000 to 10000 nM.

For `CC1(O)CCN(c2nc(=O)n(-c3ccccc3Cl)c3nc(C(F)(F)F)ccc23)C1` (racemic) [Example 255], the IC50 was under 200 nM.

Turning to `O=c1[nH]c(=O)n(-c2ccccc2Cl)c2cc(C(F)(F)F)ccc12` [Example 103, 1-(2-chlorophenyl)-7-(trifluoromethyl)-1,3-dihydroquinazoline-2,4-dione], the IC50 was under 200 nM.

`CO[C@@H]1CCN(c2nc(=O)n(-c3ccccc3)c3cc(Cl)ccc23)C1` [Example 189, (R)-7-chloro-4-(3-methoxypyrrolidin-1-yl)-1-phenylquinazolin-2(1H)-one] showed an IC50 of under 200 nM.

As for `CNc1nc(=O)n(-c2ccccc2C#N)c2cc(Cl)ccc12` [Example 219, 2-(7-chloro-4-(methylamino)-2-oxo-quinazolin-1(2H)-yl)benzonitrile], the IC50 lay in the range of 200 to 500 nM.

Consider `O=c1nc(OC2CC2)c2ccc(C(F)(F)F)nc2n1-c1ccccc1Cl` [Example 422, 1-(2-chlorophenyl)-4-cyclopropoxy-7-(trifluoromethyl)pyrido[2,3-d]pyrimidin-2(1H)-one], for which the IC50 is under 200 nM.

Take `CNc1nc(=O)n(-c2cnccc2C)c2nc(C(F)(F)F)ccc12` [Example 376]: the IC50 was under 200 nM.

For the compound `CNc1nc(=O)n(-c2cccnc2C)c2cc(C(F)(F)F)ccc12` [Example 284], the IC50 is under 200 nM.

On to `CNc1nc(=O)n(-c2cncc(O)c2)c2nc(C(F)(F)F)ccc12` [Example 390, 1-(5-hydroxypyridin-3-yl)-4-(methyl-amino)-7-(trifluoromethyl)pyrido[2,3-d]-pyrimidin-2(1H)-one], for which the IC50 was under 200 nM.

On to `CN(CC(F)F)c1nc(=O)n(-c2ccccc2)c2cc(Cl)ccc12` [Example 205, 4-[(2,2-difluoroethyl)methylamino]-7-chloro-1-phenylhydroquinazolin-2-one], for which the IC50 is under 200 nM.

Consider “1-[2-(difluoromethoxy)(3--pyridyl)]-7- cyclopropyl-4-[(cyclopropylmethyl)- amino]hydroquinazolin-2-one [Example 416]”, for which the IC50 was under 200 nM.

As for `O=c1nc(NCC(F)(F)F)c2ccc(C(F)(F)F)cc2n1-c1ccccc1Cl` [Example 101, 1-(2-chlorophenyl)-4-[(2,2,2-trifluoro-ethyl)amino]-7-(trifluoromethyl)hydro-quinazolin-2-one], the IC50 is under 200 nM.

Turning to `C[C@H](CO)Nc1nc(=O)n(-c2ccccc2Cl)c2nc(C(F)(F)F)ccc12` (atropisomer, axis not shown) [Example 323, (R)-(1Sa)-(2-chlorophenyl)-4-((1-hydroxypropan-2-yl)amino)-7-(trifluoro-methyl)pyrido-[2,3-d]pyrimidin-2(1H)-one], the IC50 is under 200 nM.

In the case of `CNC(=O)c1cccc(-n2c(=O)nc(NC)c3ccc(Cl)cc32)c1` [Example 175], the IC50 is under 200 nM.

`CC(C)(C)Nc1nc(=O)n(-c2ccccc2Cl)c2nc(C(F)(F)F)ccc12` [Example 259, 4-[(tert-butyl)amino]-1-(2-chloro-phenyl)-7-(trifluoromethyl)pyrido-[2,3-d]pyrimidin-2(1H)-one] displayed an IC50 of under 200 nM.

In turn, `O=c1nc(N2CCC2CO)c2ccc(Cl)cc2n1-c1ccccc1` (centres unmarked) [Example 186, 7-chloro-4-[2-(hydroxymethyl)azetidin-1-yl]-1-phenylhydroquinazolin-2-one] had an IC50 of under 200 nM.

Compound `CNc1nc(=O)n(-c2cc(O)ccc2C)c2cc(Cl)ccc12` [Example 109, 7-chloro-1-(3-hydroxy-6-methylphenyl)-4-(methylamino)hydroquinazolin-2-one] registered an IC50 of under 200 nM.

`O=c1nc(NC2CC2)c2ccc(C(F)(F)F)nc2n1-c1ccccc1Cl` [Example 308, 1-(2-chlorophenyl)-4-(cyclopropyl-amino)-7-(trifluoromethyl)pyrido[2,3-d]pyrimidin-2(1H)-one] came in with an IC50 of under 200 nM.

`O=c1nc(N2CC(O)C2)c2ccc(C(F)(F)F)cc2n1-c1ccccc1` [Example 164] showed an IC50 of under 200 nM.

`O=c1[nH]c(=O)n(-c2ccccc2)c2cc(C3CC3)ccc12` [Example 130, 7-cyclopropyl-1-phenyl-1,3-dihydro-quinazoline-2,4-dione] had an IC50 of 500 to 1000 nM.

In turn, `[2H]C([2H])([2H])Nc1nc(=O)n(-c2ccccc2C)c2cc(C(F)(F)F)ccc12` [Example 367, 4-((methyl-d3)amino)-1-(o-tolyl)-7-(trifluoromethyl)quinazolin-2(1H)-one] showed an IC50 of under 200 nM.

Regarding `CN(C)CCCNc1nc(=O)n(-c2ccccc2Cl)c2nc(C(F)(F)F)ccc12` [Example 266, 4-{[3-(dimethylamino)propyl]amino}-1-(2-ch1orophenyl)-7-(trifluoromethyl)-pyrido[2,3-d]pyrimidin-2(1H)-one], the IC50 lay within 1000 to 10000 nM.

In turn, `Nc1nc(=O)n(-c2ccccc2)c2nc(C(F)(F)F)ccc12` [Example 138, 4-amino-1-phenyl-7-(trifluoromethyl)-hydropyridino[2,3-d]pyrimidin-2-one] displayed an IC50 of under 200 nM.

Compound `CNc1nc(=O)n(-c2cccnc2)c2nc(C(F)(F)F)ccc12` [Example 378, 4-(methylamino)-1-(pyridin-3-yl)-7-(trifluoromethyl)pyrido[2,3-d]pyrimidin-2(1H)-one] gave an IC50 of under 200 nM.

Compound `O=c1nc(N2CC3CC3C2)c2ccc(Cl)cc2n1-c1ccccc1` (centres unmarked) [Example 222, 4-(3-azabicyclo[3.1.0]hex-3-yl)-7-chloro-1-phenylhydroquinazolin-2-one] gave an IC50 of under 200 nM.

For the compound `[2H]C([2H])([2H])Nc1nc(=O)n(-c2ccccc2)c2nc(C(F)(F)F)ccc12` [Example 366, 4-((methyl-d3)amino)-1-phenyl-7-(trifluoromethyl)pyrido[2,3-d]pyrimidin-2(1H)-one], the IC50 was under 200 nM.

On to `O=c1nc(N[C@H]2C[C@@H](O)C2)c2ccc(C(F)(F)F)nc2n1-c1ccccc1Cl` [Example 321], for which the IC50 is under 200 nM.

With `CNc1nc(=O)n(-c2cccc(C#N)c2)c2cc(Cl)ccc12` [Example 155, 3-[7-chloro-4-(methylamino)-2-oxo-hydroquinazolinyl]benzenecarbonitrile], the IC50 fell in the range of 200 to 500 nM.

The compound `Cc1ncccc1-n1c(=O)nc(N2CC[C@@H](O)C2)c2ccc(C(F)(F)F)cc21` [Example 283] showed an IC50 of under 200 nM.

`CNc1nc(=O)n(-c2ccccc2Cl)c2cc(C(F)(F)F)ccc12` [Example 102, 1-(2-chlorophenyl)-4-(methylamino)-7-(trifluoromethyl)hydroquinazolin-2-one] returned an IC50 of under 200 nM.

Regarding `O=c1nc(NCC(F)F)c2ccc(C(F)(F)F)cc2n1-c1ccccc1` [Example 119, 4-[(2,2-difluoroethyl)amino]-1-phenyl-7-(trifluoromethyl)hydroquinazolin-2-one], the IC50 was under 200 nM.

With `CN(Cc1ccccc1)c1nc(=O)n(-c2ccccc2)c2cc(Cl)ccc12` [Example 197, 7-chloro-4-[methylbenzylamino]-1-phenylhydroquinazolin-2-one], the IC50 was under 200 nM.

In turn, `CN(C)c1nc(=O)n(-c2ccc3[nH]ncc3c2)c2cc(Cl)ccc12` [Example 280, 7-chloro-4-(dimethylamino)-1-(1H-indazol-5-yl)quinazolin-2(1H)-one] returned an IC50 of under 200 nM.

The assay is the same for the next values; noted with them: L-methionine 500 uM, ATP 500 uM, numeric bound.
Take `O=C(O)[C@@H]1CCCN1c1nc(=O)n(-c2ccccc2)c2cc(Cl)ccc12` [Example 195, (2S)-1-(7-chloro-2-oxo-1-phenylhydro-quinazolin-4-yl)pyrrolidine-2-carboxylic acid]: the IC50 is over 10000 nM.

`O=c1[nH]c(=O)n(-c2ccccc2)c2c(Cl)c(C(F)(F)F)ccc12` [Example 361] registered an IC50 of over 10000 nM.

Compound `O=C(O)[C@H]1CCCN1c1nc(=O)n(-c2ccccc2)c2cc(Cl)ccc12` [Example 224, (2R)-1-(7-chloro-2-oxo-1-phenylhydro-quinazolin-4-yl)pyrrolidine-2-carboxylic acid] displayed an IC50 of over 10000 nM.

Compound `CNc1nc(=O)n(-c2ccccc2)c2cc(Cl)nnc12` [Example 243, 3-chloro-8-(methylamino)-5-phenyl-5-hydropyrimidino[5,4-c]pyridazin-6-one] registered an IC50 of over 10000 nM.

`CNc1nc(=O)n(-c2ccccc2)c2cc(Cl)cc(OC(C)C)c12` [Example 349, 7-chloro-4-(methylamino)-5-(methyl-ethoxy)-1-phenylhydroquinazolin-2-one] registered an IC50 of over 10000 nM.

In turn, `CNc1nc(=O)n(-c2cc(OC)ccn2)c2nc(C(F)(F)F)ccc12` [Example 93, 1-(4-methoxypyridin-2-yl)-4-(methyl-amino)-7-(trifluoromethyl)pyrido[2,3-d]pyrimidin-2(1H)-one] gave an IC50 of over 10000 nM.
